Read-outs that look alike come from different tables or passages of the source.

For one test, the target named is T1, human oestrogen receptor (Homo sapiens, UniProt P03372).
T1 construct: expressed in transfected cells; host or cells: Saccharomyces cerevisiae (recombinant yeast)
T1 sequence (P03372 1-595): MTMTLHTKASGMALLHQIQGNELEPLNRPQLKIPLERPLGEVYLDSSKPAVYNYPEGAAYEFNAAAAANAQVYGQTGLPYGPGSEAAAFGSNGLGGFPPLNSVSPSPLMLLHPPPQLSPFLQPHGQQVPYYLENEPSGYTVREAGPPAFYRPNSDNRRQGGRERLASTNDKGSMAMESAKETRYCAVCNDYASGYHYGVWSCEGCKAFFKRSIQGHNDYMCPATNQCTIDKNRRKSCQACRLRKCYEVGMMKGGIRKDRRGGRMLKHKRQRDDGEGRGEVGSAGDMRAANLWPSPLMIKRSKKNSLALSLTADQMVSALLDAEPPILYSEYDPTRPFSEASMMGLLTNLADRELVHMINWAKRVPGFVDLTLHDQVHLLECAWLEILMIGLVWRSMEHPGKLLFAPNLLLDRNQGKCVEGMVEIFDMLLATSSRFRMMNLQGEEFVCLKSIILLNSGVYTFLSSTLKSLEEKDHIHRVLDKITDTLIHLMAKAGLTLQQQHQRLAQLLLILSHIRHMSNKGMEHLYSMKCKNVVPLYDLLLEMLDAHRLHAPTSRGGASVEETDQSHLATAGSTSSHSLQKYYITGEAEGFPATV
The test is described as follows: oestrogenic bioassay. Format: cell-based. To be noted: yeast with human oestrogen receptor; 1, 10, 100, 1000 μM; 3 days; compared to 17 beta-oestradiol standards, FIG. 11. As for the experimental part:
In an experiment, yeast cells (Saccharomyces cerevisiae) containing a human oestrogen receptor (100 μl) was added to 25 ml growth medium. The growth medium comprised • D-glucose (2.5 ml from 20 g D-glucose in 80 ml water); • L-aspartic acid (0.625 ml from 400 mg in 100 ml water); • vitamin solution (0.250 ml from 8 mg thiamine, 8 mg pyridoxine, 8 mg panthotenic acid, 40 mg inositol and 20 ml biotin solution (2 mg in 100 ml water) in 180 ml water); • L-threonine (0.2 ml from 2.4 g in 100 ml water), copper(II)sulphate (0.0625 ml from 160 mg in 50 ml water); • minimal medium (22.5 ml from 1 l water composed of 13.61 g potassium dihydrogenphosphate, 1.98 g ammonium sulphate, 4.2 g potassium hydroxide, 1 ml iron(III)sulphate (40 mg in 50 ml water), 50 mg L-leucine, 50 mg L-histidine, 50 mg adenine, 20 mg L-arginine hydrochloride, 20 mg L-methionine, 30 mg L-tyrosine, 30 mg L-isoleucine, 30 mg L-lysine hydrochloride, 25 mg L-phenylalanine, 100 mg L-glutamic acid, 150 mg L-valine, 375 mg L-serine); and chlorophenol red beta-D-galactopyranoside (0.250 ml).
17 beta-oestradiol (20 μl aliquots from 0.008 nM to 100 nM, prepared from 10 mg in 10 ml ethanol) and test compounds, in concentrations of 1, 10, 100, 1000 μM, were pipetted into 96-well plates in a sterile flow hood. The solvent was left to evaporate for about 40 min.
The growth medium containing yeast was dispensed to all wells, except blank wells, in aliquots of 100 μl. The plates were incubated at 32° C. in a humidified atmosphere for 3 days, and then read at 540/360 nm by a microtiter plate reader (labsystems Muliskan Ascent Reader, Thermo labsystems, Vantaa, Finland).

Test [1] concerns human microvascular endothelial cells (hMVEC). The test is described as follows: in vitro angiogenesis assay: tube formation in 3-D fibrin matrices. Format: cell-based. To be noted: hMVEC on 3-D fibrin matrix, VEGF-A 25 ng/mL and TNFα 10 ng/mL, 7 days, FIG. 8. As for the experimental part: Human fibrin matrices were prepared by the addition of 0.1 U/ml thrombin to a commercially obtained (Chromogenix AB, Mölndal, Sweden) mixture of 2 mg/ml fibrinogen (final concentrations), 2 mg/ml Na-citrate, 0.8 mg/ml NaCl, 3 μg/ml plasminogen in M199 medium and 2.5 U/ml factor XIII. 100 μl aliquots of this mixture were added to the wells of 96-well plates. After clotting at room temperature, the fibrin matrices were soaked with M199 supplemented with 10% HS and 10% NBCS for 2 h at 37° C. to inactivate the thrombin. […] Invading cells and the formation of tubular structures of hMVEC in the three-dimensional fibrin matrix were analysed by phase contrast microscopy. The total length of tube-like structures of four microscopic fields (7.3 mm^2/field) were (clockwise) measured using an Olympus CK2 microscope equipped with a monochrome CCD camera (MX5) connected to a computer with Optimas image analysis software, and expressed as mm/cm^2 (Koolwijk et al. J. Cell Biol. 1996, 132:1177-188).
HMVEC were cultured on top of a 3-D fibrin matrix in M199, 10% human serum, 10% NBCS supplemented with VEGF-A (25 ng/mL) and TNFα (10 ng/mL) in the presence or absence of the indicated concentrations (w/v) of the compositions A1, A2, A3, A4, A5, B4, B5 and B6. […] The data are expressed as the mean of two wells indicated by the error bars (FIG. 8 B).

Test [2] deals with chorion allantois membrane (CAM). Put plainly: chorion allantois membrane (CAM) assay. The class given is in vivo, chicken. To be noted: for effect on blood vessel growth in the CAM (in words): Experiment 1.
Procedure: Fertilized chicken eggs are incubated during 4 days at 37° C. Subsequently, the egg shell is opened to disclose the CAM. In order to reduce the pressure on the CAM for improving its manipulating properties, 2 to 3 ml albumen is removed. The opening is closed using cellophane tape and the eggs are further incubated until day 9 for application of the liquid test compounds using different concentrations. Dulbecco's modified Eagle medium (DMEM) was used as a negative control, whereas Vascular Endothelial Growth factor (VEGF) was used as a positive control (stimulator of angiogenesis). A total polar extract from refined, de-oiled jojoba flour, dimethylsimmondsin purified from this extract and a commercially known angiogenesis inhibitor (Tangeritin) were compared in their angiogenesis-inhibiting activity towards VEGF stimulated angiogenesis in the CAM's. Each of these solubilized test compositions was pipetted on a sterile plastic disc (10 mm diameter) and dried under sterile conditions.
Each disc was treated with cortisone acetate (100 μg/50 μl) in order to avoid inflammatory reactions. After drying, the discs were placed on the CAM with the charged side facing the CAM. The control disc (DMEM) was placed at 1 cm of the disc containing the test component. The opening was sealed with cellophane tape and the eggs were further incubated. At day 11, the tape and discs were removed and 10% buffered formaline was sprayed over the CAM. Eggs were allowed to dry for 2 to 4 h at room T°. Then, the CAM was cut out of the egg and mounted on a glass slide. The vascular density index is measured according to Harris-Hooker et al. (1983; J. Cell. Physiol. 114:302-310); all micro vessels that cross 3 concentric circles with a diameter of 6, 8 and 10 mm were counted, as illustrated on FIG. 2.
The angiogenetic Index (AI) is expressed as {(t/c)×100}−100, whereby t=total number of crossing vessels where the disc containing the test component was located, and c=total number of crossing vessels where the control disc was located. […]
A further test has as its system angiogenesis. To be noted: in vitro and in vivo assays.

As to `COc1cc(C=CC(=O)OC2C(OC3CC(OC)C(OC)C(O)C3=CC#N)OC(CO)C(O)C2O)ccc1O` (stereo not shown) [E simmondsin-2′-ferulate], on human oestrogen receptor, the oestrogen-like activity entry is recorded as “no significant oestrogen-like activity”.

Turning to desmethylsimmondsin, in test [1], the “inhibition of VEGF-induced in vitro tube formation” value was “highest biological activity”.

As to `CO[C@H]1[C@@H](O)C[C@@H](O[C@@H]2O[C@H](CO)[C@@H](O)[C@H](O)[C@H]2O)/C(=C\C#N)[C@@H]1O` [5-desmethylsimmondsin], on human oestrogen receptor, the oestrogen-like activity result is reported as “no significant oestrogen-like activity”.

Regarding VEGF [reference compound], in test [2], the “effect on blood vessel growth in the CAM (in words)” value was “significant blood vessel growth compared with the negative control group (DMEM)”.

For the molecule `N#CC=C1CC(O)C(O)C(O)C1O[C@@H]1O[C@H](CO)[C@@H](O)[C@H](O)[C@H]1O` (stereo partly shown) [B5, 4,5-didesmethylsimmondsin], the “inhibition of VEGF-induced in vitro tube formation” value in test [1] is reported as “highest biological activity”. The oestrogen-like activity result on human oestrogen receptor is “no significant oestrogen-like activity”.

For the molecule “4,5-dimethylsimmondsin ferulate (cis/trans) [A5]”, the “angiogenesis-inhibiting activity (overall conclusion)” value in the test on angiogenesis was “higher angiogenesis-inhibiting activity than the unsubstituted dimethylsimmondsin”; in the test on angiogenesis (listed as dimethylsimmondsin ferulates), “significant angiogenesis-inhibiting activity, which is higher than the activity of unsubstituted dimethylsimmondsin”.

`COC1CC(OC2OC(CO)C(O)C(O)C2O)C(=CC#N)C(O)C1O` (stereo not shown) [4-desmethylsimmondsin]: the oestrogen-like activity entry on human oestrogen receptor was “no significant oestrogen-like activity”.

Consider `COc1cc(/C=C\C(=O)O[C@@H]2[C@@H](O[C@@H]3C[C@H](OC)[C@H](OC)[C@@H](O)/C3=C/C#N)O[C@@H](CO)[C@H](O)[C@H]2O)ccc1O` [Z simmondsin-2′-ferulate], for which, at human oestrogen receptor, the oestrogen-like activity result was “no significant oestrogen-like activity”.

4,5-dimethylsimmondsin [A4]: in test [2], the “effect on blood vessel growth in the CAM (in words)” value is “significant angiogenesis inhibition comparable with tangeritin”. In test [2] (Experiments 2 and 3, A4 in the same concentration as the total polar extract), the “angiogenesis-inhibiting activity in the CAM (in words)” value was “lower than the total polar extract but nevertheless still significant”. In addition, the oestrogen-like activity result on human oestrogen receptor is “no significant oestrogen-like activity”.

The values above are taken from US7387999B2, “Simmondsin for use as angiogenesis inhibitor” (priority 2002, dated 2008).
